Earlier results, collected in patent publication US20110189689A1, “RIBOSWITCHES” (priority 2008, published 2011).

How the values were obtained:
[1] = tested on: E. col±165 thiM RNA riboswitch; details: non-phosphorylated form of the thiamine analog
S. cerevisiae = details: presumably by binding to enzymes
[2] = tested on: TPP-specific riboswitches in bacteria and plants; details: via interaction with TPP-specific riboswitches in bacteria and plants

## Cc1ncc(C[n+]2csc(CCO)c2C)c(=O)[nH]1 [oxythiamine]
[1]
  affinity to the thiM RNA riboswitch: strongly reduced affinity
S. cerevisiae
  growth rate of S. cerevisiae: can reduce the growth rate

## Cc1ncc(C[n+]2cccc(CCOP(=O)(O)OP(=O)(O)O)c2C)c(N)n1 [PTPP, pyrithiamine pyrophosphate]
[2]
  antibiotic effect: exert an antibiotic effect
